Experiments:
Assay type in all cases: in vivo
[1] = system: Italian ryegrass (Lolium multiflorum); test: Test B pre-/postemergence plant response; details: for Plant response rating, Ryegrass, Italian: Postemergence
Summary of the method: (§1)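 Visual ratings on a 0–100 scale (100 = complete control) were made versus untreated controls 13–15 days after treatment in a greenhouse. Compounds in surfactant-containing non-phytotoxic solvent were applied preemergence to seeds in loam–sand blend or postemergence to 1- to 4-leaf plants (2–18 cm).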

[2] = system: Surinam grass (Brachiaria decumbens); test: Test B pre-/postemergence plant response; details: for Plant response rating, Surinam Grass: Postemergence
Summary of the method: as §1

[3] = system: bermudagrass (Cynodon dactylon); test: Test B pre-/postemergence plant response; details: for Plant response rating, Bermudagrass: Postemergence
Summary of the method: as §1

[4] = system: blackgrass (Alopecurus myosuroides); test: Test B pre-/postemergence plant response; details: for Plant response rating, Blackgrass: Postemergence
Summary of the method: as §1

corn (Zea mays) = test: Test B pre-/postemergence plant response; details: for Plant response rating, Corn: Postemergence
Summary of the method: as §1

[5] = system: johnsongrass (Sorghum halepense); test: Test B pre-/postemergence plant response; details: for Plant response rating, Johnsongrass: Postemergence
Summary of the method: as §1

[6] = system: lambsquarters (Chenopodium album); test: Test B pre-/postemergence plant response; details: for Plant response rating, Lambsquarters: Postemergence
Summary of the method: as §1

[7] = system: large crabgrass (Digitaria sanguinalis); test: Test B pre-/postemergence plant response; details: for Plant response rating, Crabgrass, Large: Postemergence
Summary of the method: as §1

[8] = system: ragweed (common ragweed, Ambrosia elatior); test: Test B pre-/postemergence plant response; details: for Plant response rating, Ragweed: Postemergence
Summary of the method: as §1

soybean (Glycine max) = test: Test B pre-/postemergence plant response; details: for Plant response rating, Soybean: Postemergence
Summary of the method: as §1

[9] = system: velvetleaf (Abutilon theophrasti); test: Test B pre-/postemergence plant response; details: for Plant response rating, Velvetleaf: Postemergence
Summary of the method: as §1

wild oat (Avena fatua) = test: Test B pre-/postemergence plant response; details: for Plant response rating, Oat, Wild: Postemergence
Summary of the method: as §1

[10] = system: woolly cupgrass (Eriochloa villosa); test: Test B pre-/postemergence plant response; details: for Plant response rating, Cupgrass, Woolly: Postemergence
Summary of the method: as §1

[11] = system: yellow nutsedge (Cyperus esculentus); test: Test B pre-/postemergence plant response; details: for Plant response rating, Nutsedge, Yellow: Postemergence
Summary of the method: as §1

[12] = system: canarygrass (Phalaris minor); test: Test B postemergence plant response; details: for Plant response rating, Canarygrass: Postemergence
Summary of the method: (§2)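 Plants at the 1- to 4-leaf stage (2 to 18 cm tall), grown in pots of peat moss/vermiculite medium with wetting agent and starter nutrients, received postemergence applications of test chemicals. After 13 to 15 days in a greenhouse, injury was rated visually against untreated controls on a 0 (no effect) to 100 (complete control) scale.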

[13] = system: chickweed (Stellaria media); test: Test B postemergence plant response; details: for Plant response rating, Chickweed: Postemergence
Summary of the method: as §2

[14] = system: windgrass (Apera spica-venti); test: Test B postemergence plant response; details: for Plant response rating, Windgrass: Postemergence
Summary of the method: as §2

[15] = system: winter barley (Hordeum vulgare); test: Test B postemergence plant response; details: for Plant response rating, Barley: Postemergence
Summary of the method: as §2

[16] = 62 g ai/ha, postemergence, 0 is no effect, 100 is complete control, 13 to 15 days
[17] = 31 g ai/ha, 0 to 100 scale (0 no effect, 100 complete control)
[18] = 125 g ai/ha, scale 0 to 100 (0 no effect, 100 complete control)
[19] = 250 g ai/ha, scale 0 to 100 (0 no effect, 100 complete control), 13 to 15 days

O=C1CCCC(O)=C1C(=O)c1cnc(-c2ccccc2)n(C2CCOCC2)c1=O [Compound 129]
95: Plant response rating, Bermudagrass [3, 18] | Lambsquarters plant response rating (0 to 100 scale) [6, 16] | Plant response rating, Lambsquarters [6, 18] | Ragweed plant response rating (0 to 100 scale) [8, 16] | Plant response rating, Ragweed [8, 18] | Plant response rating, Ragweed [8, 19] | Plant response rating, Soybean (soybean (Glycine max); [17]) | Velvetleaf plant response rating (0 to 100 scale) [9, 16] | Plant response rating, Velvetleaf [9, 17] | Plant response rating, Velvetleaf [9, 18]
80: Plant response rating, Surinam Grass [2, 17] | Bermudagrass plant response rating (0 to 100 scale) [3, 16] | Plant response rating, Bermudagrass [3, 17] | Crabgrass, Large plant response rating (0 to 100 scale) [7, 16] | Plant response rating, Crabgrass, Large [7, 17] | Plant response rating, Cupgrass, Woolly [10, 17] | Plant response rating, Windgrass [14, 18]
100: Plant response rating, Velvetleaf [9, 19] | Plant response rating, Chickweed [13, 19]
0: Ryegrass, Italian plant response rating (0 to 100 scale) [1, 16] | Plant response rating, Ryegrass, Italian [1, 17] | Plant response rating, Ryegrass, Italian [1, 18] | Plant response rating, Ryegrass, Italian [1, 19] | Plant response rating, Blackgrass [4, 17] | Plant response rating, Oat, Wild (wild oat (Avena fatua); [17]) | Canarygrass plant response rating (0 to 100 scale) [12, 16] | Plant response rating, Canarygrass [12, 17] | Plant response rating, Canarygrass [12, 18] | Plant response rating, Canarygrass [12, 19] | Barley plant response rating (0 to 100 scale) [15, 16] | Plant response rating, Barley [15, 17] | Plant response rating, Barley [15, 18] | Plant response rating, Barley [15, 19]
70: Plant response rating, Johnsongrass [5, 18]
20: Plant response rating, Corn (corn (Zea mays); [17]) | Plant response rating, Oat, Wild (wild oat (Avena fatua); [18])
85: Surinam Grass plant response rating (0 to 100 scale) [2, 16] | Plant response rating, Surinam Grass [2, 18] | Plant response rating, Surinam Grass [2, 19] | Plant response rating, Johnsongrass [5, 19] | Plant response rating, Crabgrass, Large [7, 18] | Plant response rating, Crabgrass, Large [7, 19] | Cupgrass, Woolly plant response rating (0 to 100 scale) [10, 16] | Plant response rating, Cupgrass, Woolly [10, 18] | Plant response rating, Cupgrass, Woolly [10, 19] | Plant response rating, Nutsedge, Yellow [11, 19] | Chickweed plant response rating (0 to 100 scale) [13, 16] | Plant response rating, Chickweed [13, 17] | Plant response rating, Windgrass [14, 19]
60: Plant response rating, Corn (corn (Zea mays); [18]) | Plant response rating, Corn (corn (Zea mays); [19]) | Plant response rating, Nutsedge, Yellow [11, 18] | Windgrass plant response rating (0 to 100 scale) [14, 16]
35: Corn plant response rating (0 to 100 scale) (corn (Zea mays); [16]) | Nutsedge, Yellow plant response rating (0 to 100 scale) [11, 16] | Plant response rating, Nutsedge, Yellow [11, 17]
40: Plant response rating, Johnsongrass [5, 17]
90: Plant response rating, Lambsquarters [6, 17] | Plant response rating, Ragweed [8, 17] | Plant response rating, Chickweed [13, 18]
5: Blackgrass plant response rating (0 to 100 scale) [4, 16] | Plant response rating, Blackgrass [4, 18] | Plant response rating, Blackgrass [4, 19] | Oat, Wild plant response rating (0 to 100 scale) (wild oat (Avena fatua); [16])
45: Johnsongrass plant response rating (0 to 100 scale) [5, 16] | Plant response rating, Windgrass [14, 17]
98: Plant response rating, Bermudagrass [3, 19] | Plant response rating, Lambsquarters [6, 19] | Soybean plant response rating (0 to 100 scale) (soybean (Glycine max); [16]) | Plant response rating, Soybean (soybean (Glycine max); [18]) | Plant response rating, Soybean (soybean (Glycine max); [19])
30: Plant response rating, Oat, Wild (wild oat (Avena fatua); [19])

Reference: US8952024B2, “Herbicidal pyrimidone derivatives” (E I du Pont de Nemours and Company, priority 2009, dated 2015)
